From article PMC10001067, “Xanthine Oxidase Inhibitory Peptides from Larimichthys polyactis: Characterization and In Vitro/In Silico Evidence” (Foods, 2023)
No end group written: not given here.

What was measured:
[1] = Dissolution of synthesized peptides in water; assay type: physicochemical
xanthine oxidase (XO) [2] = biological target: T1, xanthine oxidase (XO) (Bos taurus, UniProt P80457); assay: XOI activity IC50 in vitro (uric acid formation, absorbance 290 nm); assay type: biochemical, bovine milk; settings: for XOI activity at 15 mg/mL: peptide at 15 mg/mL; for IC50: synthesized peptides, 0.2 M potassium phosphate buffer pH 7.4, XO 0.07 U/mL, xanthine 0.48 mM, 37 °C, absorbance 290 nm, mean ± SD, n = 3, SD
T1 construct: xanthine oxidase (X1875-5UN, derived from bovine milk); purchased Solarbio Co., Ltd. (Beijing, China) X1875-5UN; host or cells: bovine milk
T1 sequence (P80457 whole entry): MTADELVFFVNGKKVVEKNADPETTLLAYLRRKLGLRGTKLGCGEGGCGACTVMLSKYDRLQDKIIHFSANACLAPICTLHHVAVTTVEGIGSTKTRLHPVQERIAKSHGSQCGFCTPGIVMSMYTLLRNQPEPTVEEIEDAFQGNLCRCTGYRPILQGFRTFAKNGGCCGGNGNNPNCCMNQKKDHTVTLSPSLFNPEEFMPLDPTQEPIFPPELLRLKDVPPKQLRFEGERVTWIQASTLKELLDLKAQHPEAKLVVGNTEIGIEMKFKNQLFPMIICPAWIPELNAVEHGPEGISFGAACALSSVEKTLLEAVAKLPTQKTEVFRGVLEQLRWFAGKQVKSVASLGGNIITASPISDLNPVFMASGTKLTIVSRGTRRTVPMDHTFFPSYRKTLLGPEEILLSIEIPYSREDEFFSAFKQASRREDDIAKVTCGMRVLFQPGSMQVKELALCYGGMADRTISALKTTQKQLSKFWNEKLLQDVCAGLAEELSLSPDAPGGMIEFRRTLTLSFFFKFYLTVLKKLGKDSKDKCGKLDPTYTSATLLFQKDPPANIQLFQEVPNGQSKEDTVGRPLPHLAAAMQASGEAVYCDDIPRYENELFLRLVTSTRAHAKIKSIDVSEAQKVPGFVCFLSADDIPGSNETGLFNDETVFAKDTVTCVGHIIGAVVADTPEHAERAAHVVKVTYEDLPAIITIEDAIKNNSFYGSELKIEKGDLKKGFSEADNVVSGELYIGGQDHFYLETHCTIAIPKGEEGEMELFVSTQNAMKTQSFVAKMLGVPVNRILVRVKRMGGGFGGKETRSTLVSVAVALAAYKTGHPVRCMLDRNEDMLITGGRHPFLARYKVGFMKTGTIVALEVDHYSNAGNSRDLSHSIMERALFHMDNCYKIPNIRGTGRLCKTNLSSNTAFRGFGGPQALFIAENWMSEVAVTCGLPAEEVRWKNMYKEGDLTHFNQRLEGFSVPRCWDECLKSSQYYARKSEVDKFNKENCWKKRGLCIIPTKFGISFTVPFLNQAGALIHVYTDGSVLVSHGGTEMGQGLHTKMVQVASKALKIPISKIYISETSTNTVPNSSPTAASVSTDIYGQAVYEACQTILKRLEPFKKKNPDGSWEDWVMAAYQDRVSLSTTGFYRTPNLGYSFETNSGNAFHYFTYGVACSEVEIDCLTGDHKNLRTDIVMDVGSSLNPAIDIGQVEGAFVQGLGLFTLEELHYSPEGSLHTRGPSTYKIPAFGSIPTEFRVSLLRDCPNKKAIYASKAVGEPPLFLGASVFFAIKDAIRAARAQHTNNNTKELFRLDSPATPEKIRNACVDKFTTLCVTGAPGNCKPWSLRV
Experimental: The XOI activity levels of SYCHs were determined and calculated with the methods reported by Liu and Wei with slight modifications. Xanthine was dissolved in 0.2 M potassium phosphate buffer (pH = 7.4) to a concentration of 0.48 mM. In addition, samples (SYCH, UF-1, UF-2, and UF-3) were also dissolved in 0.2 M potassium phosphate buffer (pH = 7.4). Next, 50 μL of sample solution and 50 μL of XO solution (0.07 U/mL) were mixed and incubated at 37 °C for 5 min, then 150 μL of xanthine solution was added to the mixture to continue the reaction. The absorbance of formed uric acid in the samples was monitored at 290 nm with a multifunctional microplate reader (Tecan Co., Ltd., Männedorf, Switzerland). The results were recorded for 10 min. The assay was performed in triplicate. The formula for the calculation of XOI activity is as follows: […]=(dA/dt)blank−(dA/dt)sample/(dA/dt)blank × 100% where (dA/dt)blank and (dA/dt)sample are the reaction rate without and with the test sample inhibitor, respectively. IC50 values were calculated from the mean values of data. XOI activity IC50 (the concentration of active compound required to observe 50% XO inhibition) was determined by plotting the percentage inhibition as a function of concentration of the test compound.

xanthine oxidase (XO) [3] = settings: peptide from Skipjack tuna hydrolysates; read-out: XOI activity of IC50; cited from earlier work
From the text: Seven peptides (WDDMEKIW, APPERKYSVW, IADRMQKELT, LNSADLIK, LSNLGIVI, IGALRAVA, and HHTFYNELR) derived from SYC were obtained and their activity values, hemolysis, and toxicity were predicted. Their basic data (AA sequence, MW, PI, predicted activity values, hemolysis, toxicity, and IC50 for XOI activity) are summarized in Table 3. […] Only WW8 and AW10 were predicted to have higher potential physiological activity, and all were non-hemolytic except LSNLGIVI and LNSADLIK. The r ...

XO = settings: concentration of 0.25 mg/mL; cited from earlier work
Experimental: Nongonierma reported that Trp inhibited XO by 70.3 ± 1.1% at a concentration of 0.25 mg/mL. Li claimed that relatively lower IC50 values were mainly located in the peptides containing Trp residue, reporting that the IC50 values of peptides WDD, WDQW, PPKNW, WPPKN, and WSREEQE were lower than those of peptides HCPF and ADIYTE, and that these ...

Compound: IGALRAVA [peptide derived from SYC]
- Dissolution in water at 3 mg/mL [1]: did not even dissolve in water

Compound: LNSADLIK [peptide derived from SYC]
- XOI activity at 15 mg/mL (xanthine oxidase (XO) [2]): no XOI activity

Compound: WDDMEKIW [WDDMEKIW, Trp-Asp-Asp-Met-Glu-Lys-Ile-Trp]
- IC50 (xanthine oxidase (XO) [2]): 3.16 ± 0.03 mM

Compound: HHTFYNELR [peptide derived from SYC]
- Dissolution in water at 3 mg/mL [1]: did not even dissolve in water

Compound: IADRMQKELT [peptide derived from SYC]
- XOI activity at 15 mg/mL (xanthine oxidase (XO) [2]): no XOI activity

Compound: APPERKYSVW [APPERKYSVW, Ala-Pro-Pro-Glu-Arg-Lys-Tyr-Ser-Val-Trp]
- IC50 (xanthine oxidase (XO) [2]): 5.86 ± 0.02 mM

Compound: LSNLGIVI [peptide derived from SYC]
- Dissolution in water at 3 mg/mL [1]: did not even dissolve in water

Compound: ACECD [XOI peptide from Skipjack tuna hydrolysates]
- IC50 (xanthine oxidase (XO) [3]): 13.4 mM

Compound: N[C@@H](Cc1c[nH]c2ccccc12)C(=O)O [Trp]
- Inhibition of XO (XO): 70.3 ± 1.1%
